Target: T1, L-asparaginase from Z. mobilis (L-AspZ) (Zymomonas mobilis, UniProt Q5NLV3)
T1 construct: gene ZMO1683; first 29 residues (signal peptide) removed; codon-optimised gene in E. coli BL21(DE3): pET26b (pelB, extracellular) or pET28a (cytoplasmic); not purified
Test: ammonia release, salicylate-hypochlorite (indophenol) colorimetry
Assay type: biochemical
Conditions: sonicated E. coli lysate or concentrated culture medium; 37 °C, pH 7.3, 20 mM sodium phosphate; asparagine stock 5 g/L mixed 1:1; uninduced control tested

T1 sequence (Q5NLV3 entry or part of it): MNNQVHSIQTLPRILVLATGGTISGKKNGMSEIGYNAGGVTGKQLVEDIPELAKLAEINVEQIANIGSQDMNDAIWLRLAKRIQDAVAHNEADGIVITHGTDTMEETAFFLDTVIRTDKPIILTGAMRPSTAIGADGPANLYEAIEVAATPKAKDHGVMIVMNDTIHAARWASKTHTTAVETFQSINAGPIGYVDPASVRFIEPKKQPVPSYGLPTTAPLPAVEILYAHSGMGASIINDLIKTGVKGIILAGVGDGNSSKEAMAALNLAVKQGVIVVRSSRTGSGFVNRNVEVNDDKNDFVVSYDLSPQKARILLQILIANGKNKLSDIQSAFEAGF

## NC(=O)C[C@H](N)C(=O)O [asparagine]
  ammonia release, salicylate-hypochlorite (indophenol) colorimetry: Enzyme activity was measured by hydrolyzing asparagine to aspartate and ammonia
